From patent publication US8124633B2, “Hydroxymethyl ether hydroisoindoline tachykinin receptor antagonists” (Merck Sharp & Dohme Corp., priority 2007, dated 2012)

Biological target: T1, human neurokinin-1 receptor (NK1R) (Homo sapiens, UniProt P25103)
T1 construct: the cDNA for the human NK1R was cloned into the expression vector pCDM9; expressed in transfected cells
Test: Binding assay of human NK1R expressed in COS or CHO cells (125I-substance P competition)
Details: for IC50: 125I-substance P binding to human NK1R expressed in COS or CHO cells
Description: Receptor Expression in COS: To express the cloned human neurokinin-1 receptor (NK1R) transiently in COS, the cDNA for the human NK1R was cloned into the expression vector pCDM9 which was derived from pCDM8 (INVITROGEN) by inserting the ampicillin resistance gene (nucleotide 1973 to 2964 from BLUESCRIPT SK+) into the Sac II site. Transfection of 20 ug of the plasmid DNA into 10 million COS cells was achieved by electroporation in 800 ul of transfection buffer (135 mM NaCl, 1.2 mM CaCl2, 1.2 mM MgCl2, 2.4 mM K2HPO4, 0.6 mM KH2PO4, 10 mM glucose, 10 mM HEPES pH 7.4) at 260 V and 950 uF using the IBI GENEZAPPER (1131, New Haven, Conn.). The cells were incubated in 10% fetal calf serum, 2 mM glutamine, 100 U/ml penicillin-streptomycin, and 90% DMEM media (GIBCO, Grand Island, N.Y.) in 5% CO2 at 37° C. for three days before the binding assay.
Stable Expression in CHO: To establish a stable cell line expressing the cloned human NK1R, the cDNA was subcloned into the vector pRcCMV (INVITROGEN). Transfection of 20 ug of the plasmid DNA into CHO cells was achieved by electroporation in 800 ul of transfection buffer supplemented with 0.625 mg/ml Herring sperm DNA at 300 V and 950 uF using the IBI GENEZAPPER (IBI). The transfected cells were incubated in CHO media [10% fetal calf serum, 100 U/ml penicillin-streptomycin, 2 mM glutamine, 1/500 hypoxanthine-thymidine (ATCC), 90% IMDM media (JRH BIOSCIENCES, Lenexa, Kans.), 0.7 mg/ml G418 (GIBCO)] in 5% CO2 at 37° C. until colonies were visible. Each colony was separated and propagated. The cell clone with the highest number of human NK1R was selected for subsequent applications such as drug screening.
Assay Protocol using COS or CHO: The binding assay of human NK1R expressed in either COS or CHO cells is based on the use of ^125I-substance P (^125I-SP, from DU PONT, Boston, Mass.) as a radioactively labeled ligand which competes with unlabeled substance P or any other ligand for binding to the human NK1R. Monolayer cell cultures of COS or CHO were dissociated by the non-enzymatic solution (SPECIALTY MEDIA, Lavallette, N.J.) and resuspended in appropriate volume of the binding buffer (50 mM Tris pH 7.5, 5 mM MnCl2, 150 mM NaCl, 0.04 mg/ml bacitracin, 0.004 mg/ml leupeptin, 0.2 mg/ml BSA, 0.01 mM phosphoramidon) such that 200 ul of the cell suspension would give rise to about 10,000 cpm of specific ^125I-SP binding (approximately 50,000 to 200,000 cells). In the binding assay, 200 ul of cells were added to a tube containing 20 ul of 1.5 to 2.5 nM of ^125I-SP and 20 ul of unlabeled substance P or any other test compound. The tubes were incubated at 4° C. or at room temperature for 1 hour with gentle shaking. The bound radioactivity was separated from unbound radioactivity by GF/C filter (BRANDEL, Gaithersburg, Md.) which was pre-wetted with 0.1% polyethylenimine. The filter was washed with 3 ml of wash buffer (50 mM Tris pH 7.5, 5 mM MnCl2, 150 mM NaCl) three times and its radioactivity was determined by gamma counter. The activation of phospholipase C by NK1R may also be measured in CHO cells expressing the human NK1R by determining the accumulation of inositol monophosphate which is a degradation product of IP3. CHO cells are seeded in 12-well plate at 250,000 cells per well. After incubating in CHO media for 4 days, cells are loaded with 0.025 uCi/ml of 3H-myoinositol by overnight incubation. The extracellular radioactivity is removed by washing with phosphate buffered saline. LiCl is added to the well at final concentration of […] with or without the test compound, and incubation is continued at 37° C. for […]. Substance P is added to the well at final concentration of 0.3 nM to activate the human NK1R. After 30 min of incubation at 37° C., the media is removed and 0.1 N HCl is added. Each well is sonicated at 4° C. and extracted with CHCl3/methanol (1:1). The aqueous phase is applied to a 1 ml Dowex AG 1×8 ion exchange column. […]

T1 sequence (P25103 whole entry): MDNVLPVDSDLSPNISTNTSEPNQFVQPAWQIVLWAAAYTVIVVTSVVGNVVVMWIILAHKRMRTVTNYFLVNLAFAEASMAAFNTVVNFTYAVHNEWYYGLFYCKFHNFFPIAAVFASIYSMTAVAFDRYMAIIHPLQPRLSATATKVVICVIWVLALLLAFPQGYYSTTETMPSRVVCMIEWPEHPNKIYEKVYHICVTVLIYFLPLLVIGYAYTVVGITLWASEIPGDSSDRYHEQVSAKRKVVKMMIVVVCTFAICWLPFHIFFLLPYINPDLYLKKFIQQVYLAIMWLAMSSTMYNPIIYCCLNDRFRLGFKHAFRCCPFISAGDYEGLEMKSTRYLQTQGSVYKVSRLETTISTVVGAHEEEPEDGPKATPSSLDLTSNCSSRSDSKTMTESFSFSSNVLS

| Compound | IC50 [nM] | inhibition at 0.0001 µM (at 0.1 nM, 125I-substance P binding to human NK1R) [%] |
| --- | --- | --- |
| Cc1ccccc1[C@H]1[C@@H]2CNC[C@H]2CC[C@@H]1O[C@H](CO)c1cc(C(F)(F)F)cc(C(F)(F)F)c1 [Example 2, (2S)-2-[3,5-bis(trifluoromethyl)phenyl]-2-{[(3aR,4R,5S,7aS)-4-(2-methylphenyl)octahydro-1H-isoindol-5-yl]oxy}ethanol] | 0.04 |  |
| COC[C@@H](O[C@H]1CC[C@@H]2CN(C(=O)N(C)C)C[C@H]2[C@@H]1c1ccccc1C)c1cc(C(F)(F)F)cc(C(F)(F)F)c1 [Example 14] | 0.46 |  |
| O=C1C=C(N2C[C@H]3CC[C@H](O[C@H](CO)c4cc(C(F)(F)F)cc(C(F)(F)F)c4)[C@@H](c4ccc(F)cc4)[C@@H]3C2)CC1 [Example 9] | 0.09 |  |
| Cc1cc(F)ccc1[C@H]1[C@@H]2CN(C3=CC(=O)CC3)C[C@H]2CC[C@@H]1O[C@H](CO)c1cc(C(F)(F)F)cc(C(F)(F)F)c1 [Example 11] | 0.03 |  |
| OC[C@H](O[C@H]1CC[C@@H]2CNC[C@H]2[C@@H]1c1ccc(F)cc1)c1cc(C(F)(F)F)cc(C(F)(F)F)c1 [Example 27] |  | 47 |
| O=C1C=C(N2C[C@H]3CC[C@H](O[C@@H](CO)c4cc(C(F)(F)F)cc(C(F)(F)F)c4)[C@@H](c4ccc(F)cc4)[C@@H]3C2)CC1 [Example 21] | 55 |  |
| Cc1ccccc1[C@H]1[C@@H]2CNC[C@H]2CC[C@@H]1O[C@@H](CO)c1cc(C(F)(F)F)cc(C(F)(F)F)c1 [Example 22] | 2.2 |  |
| COC[C@@H](O[C@H]1CC[C@@H]2CN(C3=CC(=O)CC3)C[C@H]2[C@@H]1c1ccccc1C)c1cc(C(F)(F)F)cc(C(F)(F)F)c1 [Example 4, 3-[(3aR,4R,5S,7aS)-5-{(1S)-1-[3,5-bis(trifluoromethyl)phenyl]-2-methoxyethoxy}-4-(2-methylphenyl)octahydro-2H-isoindol-2-yl]cyclopent-2-en-1-one] | 0.1 |  |
| OC[C@@H](O[C@H]1CC[C@@H]2CNC[C@H]2[C@@H]1c1ccc(F)cc1)c1cc(C(F)(F)F)cc(C(F)(F)F)c1 [Example 16] | 0.35 |  |

Continued, values first:

| IC50 [nM] | inhibition at 0.0001 µM (at 0.1 nM, 125I-substance P binding to human NK1R) [%] | Compound |
| --- | --- | --- |
| 0.03 |  | Cc1ccccc1[C@H]1[C@@H]2CN(C(=O)N(C)C)C[C@H]2CC[C@@H]1O[C@H](CO)c1cc(C(F)(F)F)cc(C(F)(F)F)c1 [Example 6, (3aR,4R,5S,7aS)-5-{(1S)-1-[3,5-bis(trifluoromethyl)phenyl]-2-hydroxyethoxy}-N,N-dimethyl-4-(2-methylphenyl)octahydro-2H-isoindole-2-carboxamide] |
| 0.06 |  | Cc1ccccc1[C@H]1[C@@H]2CN(C(=O)C3CC3)C[C@H]2CC[C@@H]1O[C@H](CO)c1cc(C(F)(F)F)cc(C(F)(F)F)c1 [Example 13] |
| 0.06 |  | Cc1ccccc1[C@H]1[C@@H]2CN(C3=NC(=O)CO3)C[C@H]2CC[C@@H]1O[C@H](CO)c1cc(C(F)(F)F)cc(C(F)(F)F)c1 [Example 5, 2-[(3aR,4R,5S,7aS)-5-{(1S)-1-[3,5-bis(trifluoromethyl)phenyl]-2-hydroxyethoxy}-4-(2-methylphenyl)octahydro-2H-isoindol-2-yl]-1,3-oxazol-4(5H)-one] |
| 0.08 |  | Cc1ccccc1[C@H]1[C@@H]2CN(C(=O)C(C)C)C[C@H]2CC[C@@H]1O[C@H](CO)c1cc(C(F)(F)F)cc(C(F)(F)F)c1 [Example 7, (2S)-2-[3,5-bis(trifluoromethyl)phenyl]-2-{[(3aR,4R,5S,7aS)-2-isobutyryl-4-(2-methylphenyl)octahydro-1H-isoindol-5-yl]oxy}ethanol] |
| 45 |  | Cc1ccccc1[C@H]1[C@@H]2CN(C(=O)C(C)(C)C)C[C@H]2CC[C@@H]1O[C@@H](CO)c1cc(C(F)(F)F)cc(C(F)(F)F)c1 [Example 24] |
| 0.03 |  | Cc1cc(F)ccc1[C@H]1[C@@H]2CN(C3=NC(=O)CO3)C[C@H]2CC[C@@H]1O[C@H](CO)c1cc(C(F)(F)F)cc(C(F)(F)F)c1 [Example 10] |
| 0.07 |  | Cc1ccccc1[C@H]1[C@@H]2CN(C(=O)C(C)(C)C)C[C@H]2CC[C@@H]1O[C@H](CO)c1cc(C(F)(F)F)cc(C(F)(F)F)c1 [Example 12] |
| 0.06 |  | Cc1ccccc1[C@H]1[C@@H]2CN(C3=CC(=O)CC3)C[C@H]2CC[C@@H]1O[C@H](CO)c1cc(C(F)(F)F)cc(C(F)(F)F)c1 [Example 3, 3-[(3aR,4R,5S,7aS)-5-{(1S)-1-[3,5-bis(trifluoromethyl)phenyl]-2-hydroxyethoxy}-4-(2-methylphenyl)octahydro-2H-isoindol-2-yl]cyclopent-2-en-1-one] |
| 0.03 |  | O=C1COC(N2C[C@H]3CC[C@H](O[C@H](CO)c4cc(C(F)(F)F)cc(C(F)(F)F)c4)[C@@H](c4ccc(F)cc4)[C@@H]3C2)=N1 [Example 8] |
